What all share (test): NCI tumour cell line growth inhibition, 48 h
The test system of test [1] is SF-539 CNS.
Test [2] has as its system SNB-75 CNS.
The test system of test [3] is SK-MEL-28 melanoma.
Test [4] relates to SF-295 CNS.
Test [5] relates to 786-0 renal.
Test [6] has as its system KM12 colon.
Test [7] relates to SR leukemia.
The subject of test [8] is OVCAR-4 ovarian.
Test [9] concerns OVCAR-3 ovarian.
Test [10] relates to PC-3 prostate.

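Tested at 5 concentrations; 48 h exposure; 96-well plates; endpoints linearly interpolated, else capped at highest concentration. GI50 marks 50% less growth. TGI: total growth inhibition.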 Where only a bound is given, the exact number is not on record here.

Drawing on PubChem BioAssay (NCI), this text covers TGI and GI50 for 2 molecules.

Regarding `c1ccc(B2OCC(C3OB(c4ccccc4)OC4COB(c5ccccc5)OC43)O2)cc1` (stereo not drawn), the TGI in test [1], in [2], in [3], in test [4], in test [5] and in test [6] was greater than 100 µM each time. In addition, the TGI in test [7], in [8], in test [9] and in test [10] was greater than 100 µM throughout.
As to `C=C1C(OC/C=C/COC2O[C@@H]3O[C@@]4(C)CC[C@H]5[C@H](C)CC[C@@H](C2=C)[C@@]35OO4)O[C@@H]2O[C@@]3(C)CC[C@H]4[C@H](C)CC[C@@H]1[C@@]24OO3` (stereo partly drawn), the GI50 in [1] is 10 µM; in test [2] it was 7.99 µM; in [3], 12.3 µM; in test [5], 0.578 µM; in test [6] it was less than 0.024 µM; in [7], 0.0315 µM. The GI50 in test [8] is 0.741 µM; in test [10] it was less than 0.0141 µM. Also, the TGI in [1] worked out at 25.2 µM; in test [2] it was 31.1 µM; in test [3] it was 52.2 µM; in test [4], 2.19 µM; in test [5], 18.7 µM; in test [6] it was 0.778 µM. The TGI in test [7] stood at 2.6 µM; in test [8], 26.2 µM; in test [9] it was 11.4 µM; in test [10] it was 32.5 µM.
